The results in this text go back to patent publication US20050050594A1, “Tryptophan synthase as a site of herbicide action” (priority 1999, published 2005).

The target in assay [1] is T1, Salmonella typhimurium tryptophan synthase holoenzyme (α2β2), TSα reaction (Salmonella typhimurium, UniProt P00929).
T1 construct: made in house; host or cells: E. coli strain CB149pSTB7
Kind of assay: Inhibition of tryptophan synthase by the TSα reaction, microtiter kinetic coupled enzyme assay. In kind it is biochemical. The note with it: for activity in enzyme inhibitory assays, relative to inhibitors 1-5: comparison within the series of inhibitors 1 to 5. The source says:
Inhibitors of TS were identified by their ability to inhibit the production of glyceraldehyde-3-P by the TSα reaction of the Salmonella typhimurium holoenzyme (α2β2) in the presence of a limiting amount of indole-3-glycerolphosphate and an excess of serine
The assay was developed as a new microtiter plate kinetic enzyme assay based on the combined methods of Creighton (EurJBch 13:1-10, 1970) and Creighton and Yanofsky (JBC 241:980, 1966) with modifications. The rate of glyceraldehyde production was measured as the linear […] (spectrophotometric absorbance at 340 nm) in the presence of glyceraldehyde-3-phosphate dehydrogenase in a coupled enzyme assay.
The assay solution contained a test inhibitor compound, 50 mM Tris-Cl (pH 7.8), 6 mM sodium arsenate, 5 μg/ml pyridoxal phosphate, 0.5 mM DTT, 0.18M NaCl, 60 mM serine, 1.6 mM NAD+, 8 e.u./ml yeast glyceraldehyde-3-phosphate dehydrogenase (Sigma, Catalog #G2647; Kirschner et al., Eur J Bch, 1975, 60:513 and approximately 1.5 e.u. Salmonella TS. 100 μM IGP was added to start the reaction, which was run at 37° C. and using 300 μl per assay in a microtiter plate.
The substrate IGP was used at 1.5 to 2 times its Km concentration to enhance the likelihood of identifying weak inhibitors, binding at the substrate binding site. This approach to identifying enzyme inhibitors was novel, since an excess of all substrates, (at least 5-times the Km value of each), is conventionally used in the measurement of enzyme activity.
Potential inhibitors were evaluated by adding 100 μM inhibitor (equimolar to substrate IGP):or less, in a 1:1 dilution series down from 100 μM, until the inhibition measured was less than 15%. Reaction rates at Vmax were compared in the presence and absence of inhibitors.
In addition, some weaker inhibitors were identified following preincubation of the inhibitor with the TS assay mix for 24 hrs prior to the addition of IGP. The identifying weaker inhibitors is to aid in a quantitative structure activity relationship (QSAR) evaluation, or to identify new herbicidal inhibitor leads. The previously known inhibitor IPP was used as a standard in all tests, where the I50 for IPP was 1-2 uM.

For assay [2], the system named is a variety of dicotyledonous and monocotyledonous plants. Briefly: Postemergence greenhouse herbicidal test. In kind it is in vivo. The note with it: for activity in herbicidal (biological) assays, relative to inhibitors 1-5: comparison within the series of inhibitors 1 to 5. As for the experimental part:
The herbicidal activity of the compounds was tested as described in the U.S. Pat. No. 5,635,449. […] In the tests, seedling plants are grown in jiffy flats for about two weeks. The test compounds are dispersed in 50/50 acetone/water mixtures containing 0.5% TWEEN®20, a polyoxyethylene sorbitan monolaurate surfactant of Atlas Chemical Industries, in sufficient quantities to provide the equivalent of about 1.0 kg to 8.0 kg per hectare of test compound when applied to the plants through a spray nozzle operating at 40 psi for a predetermined time. After spraying, the plants are placed on greenhouse benches and are cared for in the usual manner, commensurate with conventional greenhouse practices. From four to five weeks after treatment, the seedling plants are examined and rate according to the rating system set forth below.

The test system of a further assay is Synechocystis PCC 6803. Kind of assay: End-product reversal in Synechocystis, culture growth in liquid medium. The settings on record: for Culture density (%) / Culture density as A420: four days. The assay is classed as cell-based. An excerpt:
Synechocystis is a unicellular green organism that is actually a photosynthetic bacterium, with a photosynthetic system very similar to that of higher plant chloroplasts. Culture growth of Synechocystis could be inhibited by a compound of the present invention, and the growth inhibition could be prevented in the presence of tryptophan.

The target of another assay is T2, Arabidopsis TS enzyme (Arabidopsis thaliana, UniProt Q42529).
T2 construct: GST (N, cleaved yes); made in house; host or cells: E. coli DH5α (pGEX-2T constructs)
T2 sequence (Q42529 with tags, fused parts or gaps): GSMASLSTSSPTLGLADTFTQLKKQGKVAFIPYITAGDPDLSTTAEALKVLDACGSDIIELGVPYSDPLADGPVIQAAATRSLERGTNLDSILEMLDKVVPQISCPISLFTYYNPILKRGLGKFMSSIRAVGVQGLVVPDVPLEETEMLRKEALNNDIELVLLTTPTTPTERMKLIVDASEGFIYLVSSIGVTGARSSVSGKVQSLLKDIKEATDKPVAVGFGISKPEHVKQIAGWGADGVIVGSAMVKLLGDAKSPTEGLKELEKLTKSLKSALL
T2 sequence (P14671 with tags, fused parts or gaps partner): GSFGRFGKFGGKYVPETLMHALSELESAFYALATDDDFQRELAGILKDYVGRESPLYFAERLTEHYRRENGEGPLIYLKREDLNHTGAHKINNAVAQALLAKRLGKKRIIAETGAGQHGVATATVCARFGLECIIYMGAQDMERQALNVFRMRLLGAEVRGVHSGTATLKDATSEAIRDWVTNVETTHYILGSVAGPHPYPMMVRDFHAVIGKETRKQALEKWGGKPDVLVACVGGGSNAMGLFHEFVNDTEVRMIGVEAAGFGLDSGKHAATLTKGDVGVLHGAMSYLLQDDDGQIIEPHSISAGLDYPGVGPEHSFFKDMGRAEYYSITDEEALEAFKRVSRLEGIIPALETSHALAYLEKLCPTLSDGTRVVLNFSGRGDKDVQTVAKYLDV
Kind of assay: TSα assay with recombinant plant TSα and TSβ expressed in E. coli. The assay is classed as biochemical. The note with it: inhibitor 82 uM; pAC 758 (1.5 ug) + pAC 755 (3 ug). On the procedure:
The plant TS proteins were expressed as fusion proteins with glutathione transferase (GST) to facilitate purification. After purification, the GST protein was cleaved off with thrombin as described above before the plant TS assays were performed. After thrombin cleavage, both TSα and TSβ-subunit proteins retained a Gly-Ser residue on the N-terminal of the protein in addition to the TS sequence. […]
The TSα enzyme assay was conducted as described in Example 3 for Salmonella TSα.
Specifically, phenylthiophosphonic acid compounds were used. The TSα assay conditions were as described for Salmonella TSα in Example 3 except that recombinant plant proteins were used instead of the Salmonella enzyme.

Another assay deals with Arabidopsis thaliana. Kind of assay: Herbicidal activity and tryptophan reversal on Arabidopsis grown on agar medium. In kind it is in vivo. As for the experimental part:
In this experiment, TS inhibitors were tested on Arabidopsis thaliana grown Murashige minimal organics medium, (obtained from Life Technologies, Grand Island, N.Y.), containing 0.7% agar. Compounds were tested at different concentrations to assess their herbicidal activity.

Where [3] appears, read: I50 TS, TSα reaction of the highly purified Salmonella typhimiurium holoenzyme.
[4] abbreviates: post emergence greenhouse test, 4 kg/ha.
[5] abbreviates: inhibitor 62 μM, +tryptophan 31 μM.
Setting [6] is: inhibitor 62 μM, +tryptophan 62 μM.
[7] abbreviates: inhibitor 125 μM, +tryptophan 31 μM.
Setting [8] is: inhibitor 125 μM, +tryptophan 62 μM.
[9] abbreviates: inhibitor 125 μM, no tryptophan.

Read-outs that look alike come from different tables or passages of the source.

T1 sequence (P00929 whole entry): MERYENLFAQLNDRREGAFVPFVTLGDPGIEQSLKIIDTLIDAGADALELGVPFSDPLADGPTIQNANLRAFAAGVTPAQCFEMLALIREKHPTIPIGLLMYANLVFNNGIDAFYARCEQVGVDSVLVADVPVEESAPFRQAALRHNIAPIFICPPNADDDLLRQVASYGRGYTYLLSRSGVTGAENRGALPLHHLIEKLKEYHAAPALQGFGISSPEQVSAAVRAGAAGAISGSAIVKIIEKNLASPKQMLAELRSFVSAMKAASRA
T1 sequence (P0A2K1 2-397, further chain): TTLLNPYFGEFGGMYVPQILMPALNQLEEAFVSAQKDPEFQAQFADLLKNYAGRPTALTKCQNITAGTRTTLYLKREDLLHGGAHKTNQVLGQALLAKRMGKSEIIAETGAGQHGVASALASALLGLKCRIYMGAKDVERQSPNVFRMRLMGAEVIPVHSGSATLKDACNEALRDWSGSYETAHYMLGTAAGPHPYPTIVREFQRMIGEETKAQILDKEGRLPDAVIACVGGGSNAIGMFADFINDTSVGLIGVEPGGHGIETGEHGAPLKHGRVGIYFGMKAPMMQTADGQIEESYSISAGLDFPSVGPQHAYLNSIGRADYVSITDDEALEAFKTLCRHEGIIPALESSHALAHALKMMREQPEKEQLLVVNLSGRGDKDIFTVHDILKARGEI

In turn, `O=P(O)(O)CCCc1c[nH]c2ccccc12` [Compound 7a] returned an IC50 in assay [1] (setting [3]) of 125 µM. Further, in assay [2] (setting [4]), the Herbicidal Activity entry was “inactive”.

For `O=P(O)(O)CCCCc1c[nH]c2ccccc12` [Compound 7b, Phosphonic acid, [4-(indol-3-yl)butyl]-], the IC50 in assay [1] (setting [3]) was 20 µM; in assay [1] (TS inhibition I50, TSα reaction, Salmonella holoenzyme, 30 min at 37° C., 100 μM IGP), 20 µM. In assay [2] (setting [4]), the Herbicidal Activity result is reported as “weak (weak activity = maximum 20-30% injury on any species)”.

Consider `O=C(Oc1ccccc1SCCCCP(=O)(O)O)c1ccccc1` [Phosphonic acid, {4-[(2-hydroxyphenyl)thio]butyl}-, benzoate (ester)], for which the “effect of tryptophan on the growth inhibitory effects” value in the assay with Synechocystis PCC 6803 is listed as “completely reversed”. In addition, the “Culture density (%)” value in the assay with Synechocystis PCC 6803 (setting [5]) is listed as 136%; in the assay on Synechocystis PCC 6803 (setting [6]), 132%; with Synechocystis PCC 6803 (inhibitor 62 μM, no tryptophan), 84%; with Synechocystis PCC 6803 (setting [7]), 116%; in the assay on Synechocystis PCC 6803 (setting [8]), 102%; with Synechocystis PCC 6803 (setting [9]) it was 7%. Moreover, the “Culture density as A420” value in the assay on Synechocystis PCC 6803 (setting [5]) is given as 0.726; with Synechocystis PCC 6803 (setting [6]) it was 0.704; in the assay with Synechocystis PCC 6803 (inhibitor 62 μM, no tryptophan), 0.449; in the assay on Synechocystis PCC 6803 (setting [7]), 0.622; in the assay on Synechocystis PCC 6803 (setting [8]) it was 0.544; with Synechocystis PCC 6803 (setting [9]), 0.040. In addition, the “TSα activity, % of control” value on Arabidopsis TS enzyme is recorded as 2.7 % of control. Besides, at Arabidopsis TS enzyme, the “TSα activity, relative Vmax” value was determined as 0.168 mOD/min.

`O=P(O)(O)CCCCS(=O)(=O)c1ccccc1O` [Compound 33, Phosphonic acid, {4-[(o-hydroxyphenyl)sulfonyl]butyl}-]: the IC50 in assay [1] (I50 TS, TSα reaction of Salmonella holoenzyme) was 0.36 µM. Further, at Arabidopsis TS enzyme, the “TSα activity, % of control” value is 2.4 % of control and the “TSα activity, relative Vmax” value is recorded as 0.150 mOD/min.

Take “Phosphonic acid, {4-[(o-hydroxyphenyl)thio]butyl}-,aryl-butyrate (ester)”: the herbicidal rating came out at 1 with Arabidopsis thaliana (herbicide 7.8 mM + 100 μM Trp); 5 with Arabidopsis thaliana (herbicide 7.8 mM, no Trp); 1 with Arabidopsis thaliana (herbicide 16 mM + 100 μM Trp); 6 in the assay with Arabidopsis thaliana (herbicide 16 mM, no Trp); 1 in the assay on Arabidopsis thaliana (herbicide 31 mM + 100 μM Trp); 6 in the assay on Arabidopsis thaliana (herbicide 31 mM, no Trp). The herbicidal rating in the assay with Arabidopsis thaliana (herbicide 63 mM + 100 μM Trp) is 3; with Arabidopsis thaliana (herbicide 63 mM, no Trp), 7; in the assay with Arabidopsis thaliana (herbicide 125 mM + 100 μM Trp) it was 5; in the assay with Arabidopsis thaliana (herbicide 125 mM, no Trp), 7; with Arabidopsis thaliana (herbicide 250 mM + 100 μM Trp), 5; in the assay with Arabidopsis thaliana (herbicide 250 mM, no Trp) it was 7. Also, the herbicidal rating with Arabidopsis thaliana (herbicide 500 mM + 100 μM Trp) worked out at 3; with Arabidopsis thaliana (herbicide 500 mM, no Trp), 7; in the assay on Arabidopsis thaliana (herbicide 1000 mM + 100 μM Trp) it was 3; with Arabidopsis thaliana (herbicide 1000 mM, no Trp), 7. Also, the “TSα activity, % of control” value on Arabidopsis TS enzyme is reported as 2.1 % of control. Further, the “TSα activity, relative Vmax” value on Arabidopsis TS enzyme is recorded as 0.133 mOD/min.

For `Nc1ccccc1SCCCCP(=O)(O)O` [Compound 13, 4-(2-aminophenylthio)-butylphosphonic acid], the IC50 in assay [1] (TSα reaction of Salmonella holoenzyme, read-out: I50 TS) came to 0.4 µM. Moreover, the “activity in enzyme inhibitory assays, relative to inhibitors 1-5” value in assay [1] is “weakest activity”. The “Herbicidal Activity” value in assay [2] (Postemergence application) was “+ (+ = 30-80% injury to one species)”. Moreover, the “activity in herbicidal (biological) assays, relative to inhibitors 1-5” value in assay [2] is given as “weakest activity”.

Consider `CC(C)N.CC(C)N.O=P(O)(O)C=CCCSc1ccccc1O` [Inhibitor 1, 4-(2-hydroxyphenylthio)-1-butenylphosphonic acid, 1:2 salt with isopropylamine], for which the “activity in enzyme inhibitory assays, relative to inhibitors 1-5” value in assay [1] is given as “highest activity”. For the same molecule, the “activity in herbicidal (biological) assays, relative to inhibitors 1-5” value in assay [2] is “highest activity”.
